Here are results for one compound from patent US4112218A, “Method of preparing sterol glycosides from plants” (Nippon Shinyaku Co., Ltd., priority 1976, dated 1978).

For test [1], the system named is bleeding from the amputated tail end. The test is described as follows: hemostatic effect, Motohashi et al. model: time until bleeding from amputated mouse tail tip in water is completely stopped. The class given is in vivo. The settings on record: mice, tail tip amputation.
Test [2] has as its system pulmonary hemorrhage. Kind of test: pulmonary hemorrhage in mice under reduced pressure (scoring method; vascular stabilizing effect). The class given is in vivo. The settings on record: Mus musculus, reduced pressure of 50 ± 0.5 mm Hg/15 sec.

Molecules are shown by their SMILES. Like-named read-outs stand apart in the source and are kept apart here.

Usually ED50 stands for the midpoint of the dose-response relation. With `CN1C2=CC(=O)C(=NNC(N)=O)C=C2CC1S(=O)(=O)O` (stereo not drawn) [Carbazochrome sodium sulfonate], the ED50 in test [1] (ip, read-out: ED50 i.p. (hemostatic effect)) worked out at 5.4 mg/kg; in test [1] (iv, read-out: ED50 i.v. (hemostatic effect)), 3.6 mg/kg; in test [1] (po, read-out: ED50 p.o. (hemostatic effect)), 36 mg/kg; in test [2] (ip, read-out: ED50 i.p. (pulmonary hemorrhage)), 112 mg/kg; in test [2] (iv, read-out: ED50 i.v. (pulmonary hemorrhage)), 80 mg/kg; in test [2] (po, read-out: ED50 p.o. (pulmonary hemorrhage)) it was 400 mg/kg.
